How the values were obtained:
[1] = Cytotoxicity against human HepG2 cells after 72 hrs by MTT assay; type: cell-based
[2] = Selectivity index, ratio of CC50 for human HepG2 cells to IC50 for Plasmodium falciparum W2; type: functional
Plasmodium falciparum = assay: Antiplasmodial activity against chloroquine-, pyrimethamine- and proguanil-resistant Plasmodium falciparum K1 infected in human erythrocytes after 72 hrs by SYBR Green I fluorescence-based method; type: functional, organism-based; conditions: K1, 72 h
[3] = Selectivity index, ratio of CC50 for human HepG2 cells to IC50 for chloroquine-, pyrimethamine- and proguanil-resistant Plasmodium falciparum K1 infected in human erythrocytes; type: functional

SMILES	CC50 at 72 h [1]	Ratio CC50/IC50 [2]	IC50 (Plasmodium falciparum)	Ratio CC50/IC50 [3]
ClC(Cl)(Cl)c1nc(-c2ccccc2)c2ccccc2n1	> 125 µM	>15.6	–	–
ClC(Cl)(Cl)c1nccc2ccccc12	180 µM	–	8 µM	22.5
ClC(Cl)(Cl)c1ncnc2ccccc12	> 500 µM	–	> 50 µM	–
ClC(Cl)(Cl)c1ncc2ccccc2n1	61 µM	–	17.6 µM	3.5
Cc1ncc2ccccc2n1	350 µM	–	> 50 µM	<7
ClC(Cl)(Cl)c1cnc2ccccc2n1	3.1 µM	–	1.5 µM	2.1
Cc1cnc2ccccc2n1	> 500 µM	–	> 50 µM	–
ClC(Cl)c1cnc2ccccc2n1	19.3 µM	–	12.8 µM	1.5
FC(F)(F)c1cnc2ccccc2n1	> 500 µM	–	> 50 µM	–
ClC(Cl)(Cl)c1nc2ccccc2nc1-c1ccccc1	3.5 µM	–	0.2 µM	17.5
ClC(Cl)(Cl)c1nc2ccccc2n2cccc12	41.2 µM	–	1.5 µM	27.5
Fc1ccc2c(c1)nc(C(Cl)(Cl)Cl)c1cccn12	> 15 µM	–	1.7 µM	>8.8
Clc1ccc2c(c1)nc(C(Cl)(Cl)Cl)c1cccn12	9.8 µM	–	1.6 µM	6.1
ClC(Cl)(Cl)c1nc2cc(I)ccc2n2cccc12	6.6 µM	–	1.2 µM	5.5
Cc1ccc2c(c1)nc(C(Cl)(Cl)Cl)c1cccn12	53 µM	–	2.4 µM	22.1
COc1ccc2c(c1)nc(C(Cl)(Cl)Cl)c1cccn12	35 µM	–	4.2 µM	8.3
N#Cc1ccc2c(c1)nc(C(Cl)(Cl)Cl)c1cccn12	17 µM	–	1.5 µM	11.3
O=C(O)c1ccc2c(c1)nc(C(Cl)(Cl)Cl)c1cccn12	106 µM	–	22 µM	<10.6
N/C(=N/O)c1ccc2c(c1)nc(C(Cl)(Cl)Cl)c1cccn12	> 15 µM	–	1.75 µM	>8.6
Cc1nc2ccccc2n2cccc12	120 µM	–	> 50 µM	<2.4
Cc1ccc2c(c1)nc(C)c1cccn12	57 µM	–	> 50 µM	<4.7
Cc1nc2cc(C#N)ccc2n2cccc12	> 31.5 µM	–	> 50 µM	–
FC(F)(F)c1nc2ccccc2n2cccc12	160 µM	–	> 50 µM	<3.2
Cc1nccc2ccccc12	179 µM	–	> 50 µM	<3.6
C[C@H]1c2cccc(O)c2C(=O)C2=C(O)[C@]3(O)C(=O)C(C(N)=O)=C(O)[C@@H](N(C)C)[C@@H]3[C@@H](O)[C@@H]21.O [DOXYCYCLINE]	–	–	6 µM	3.3
Cc1ccc2ccccc2n1 [QUINALDINE]	> 500 µM	–	> 50 µM	–
c1ccc2nccnc2c1 [QUINOXALINE]	> 500 µM	–	> 50 µM	–

Source: ChEMBL document CHEMBL3286299, “Synthesis and in vitro evaluation of 4-trichloromethylpyrrolo[1,2-a]quinoxalines as new antiplasmodial agents” (Eur J Med Chem, 2014)
